Measured values as given in the NIST ThermoML archive (doi:10.1016/j.jct.2008.07.009).
Numbers after ± are expanded uncertainties.

Settings: 101.33 kPa, Liquid, Vibrating tube method

SMILES | mass density (293.15 K) | mass density (303.15 K) | mass density (313.15 K) | mass density (323.15 K) | mass density (333.15 K) | mass density (343.15 K)
Cc1cc(C)cc(C)c1 [1,3,5-trimethylbenzene] | 865.1 ± 6 kg/m3 | 856.9 ± 6 kg/m3 | 842.8 ± 6 kg/m3 | 834.7 ± 6 kg/m3 | 826.6 ± 6 kg/m3 | 818.5 ± 6 kg/m3
CC(=O)N1CCOCC1 [4-acetylmorpholine] | 1113.8 ± 6.1 kg/m3 | 1105.9 ± 6.1 kg/m3 | 1097.3 ± 6.1 kg/m3 | 1088.7 ± 6.1 kg/m3 | 1080.1 ± 6.1 kg/m3 | 1071.5 ± 6.1 kg/m3
c1ccccc1 [benzene] | 878.9 ± 6 kg/m3 | 868.2 ± 6 kg/m3 | 857.4 ± 6 kg/m3 | 846.5 ± 6 kg/m3 | 835.7 ± 6 kg/m3 | 824.7 ± 6 kg/m3
CCc1ccccc1 [ethylbenzene] | 867.2 ± 6 kg/m3 | 858.3 ± 6 kg/m3 | 849.3 ± 6 kg/m3 | 840.3 ± 6 kg/m3 | 831.2 ± 6 kg/m3 | 822.1 ± 6 kg/m3
Cc1ccccc1 [toluene] | 866.8 ± 6 kg/m3 | 857.5 ± 6 kg/m3 | 848.8 ± 6 kg/m3 | 838.9 ± 6 kg/m3 | 829.6 ± 6 kg/m3 | 820.2 ± 6 kg/m3
